Patent US7157596B2, “Inhibitors of serine protease activity of matriptase or MTSP1” (Dendreon Corporation, priority 2000, dated 2007)

Experiments:
Assay type in all cases: biochemical
human α-thrombin = molecular target: T1, human α-thrombin (Homo sapiens, UniProt P00734); test: In vitro enzyme assay for specificity: Thrombin (fIIa); conditions: 30 min preincubation; substrate Pefachrome t-PA
T1 construct: Purified human α-thrombin was obtained from Enzyme Research Laboratories, Inc; purchased Enzyme Research Laboratories, Inc
Experimental: (§1) The ability of compounds to act as a selective inhibitor of matriptase activity was assessed by determining the concentration of test-compound which inhibited the activity of matriptase by 50%, (IC50) as described in Example A, and comparing IC50 value for matriptase to that determined for all or some of the following serine proteases: thrombin, recombinant tissue plasminogen activator (rt-PA), plasmin, activated protein C, chymotrypsin, factor Xa and trypsin.
(§2) The buffer used for all assays was HBSA (10 mM HEPES, pH 7.5, 150 mM sodium chloride, 0.1% bovine serum albumin).
(§3) The assay for IC50 determinations was conducted by combining in appropriate wells of a Corning microtiter plate, 50 microliters of HBSA, 50 microliters of the test compound at a specified concentration (covering a broad concentration range) diluted in HBSA (or HBSA alone for V0 (uninhibited velocity) measurement), and 50 microliters of the enzyme diluted in HBSA. Following a 30 minute incubation at ambient temperature, 50 microliters of the substrate at the concentrations specified below were added to the wells, yielding a final total volume of 200 microliters. The initial velocity of chromogenic substrate hydrolysis was measured by the change in absorbance at 405 nm using a Thermo Max® Kinetic Microplate Reader over a 5 minute period in which less than 5% of the added substrate was utilized. The concentration of added inhibitor which caused a 50% decrease in the initial rate of hydrolysis was defined as the IC50 value.
Enzyme activity was determined using the chromogenic substrate, Pefachrome t-PA (CH3SO2-D-hexahydrotyrosine-glycyl-L-Arginine-p-nitroaniline, obtained from Pentapharm Ltd.). The substrate was reconstituted in deionized water prior to use. Purified human α-thrombin was obtained from Enzyme Research Laboratories, Inc. The buffer used for all assays was HBSA (10 mM HEPES, pH 7.5, 150 mM sodium chloride, 0.1% bovine serum albumin).
The initial velocity of Pefachrome t-PA hydrolysis was measured by the change in absorbance at 405 nm using a Thermo Max® Kinetic Microplate Reader over a 5 minute period in which less than 5% of the added substrate was utilized. The concentration of added inhibitor which caused a 50% decrease in the initial rate of hydrolysis was defined as the IC50 value.

human plasmin = molecular target: T2, human plasmin (Homo sapiens, UniProt P00747); test: In vitro enzyme assay for specificity: Plasmin; conditions: 30 min preincubation; substrate S-2366
T2 construct: Purified human plasmin was obtained from Enzyme Research Laboratories, Inc; purchased Enzyme Research Laboratories, Inc
Experimental: as §1, §2, §3
Plasmin catalytic activity was determined using the chromogenic substrate, S-2366 [L-pyroglutamyl-L-prolyl-L-arginine-p-nitroaniline hydrochloride], which was obtained from DiaPharma group. The substrate was made up in deionized water followed by dilution in HBSA prior to the assay in which the final concentration was 300 micromolar (about 2.5-times Km). Purified human plasmin was obtained from Enzyme Research Laboratories, Inc. The enzyme was diluted into HBSA prior to assay in which the final concentration was 1.0 nM.

Factor Xa = molecular target: T3, Factor Xa (Homo sapiens, UniProt P00742); test: In vitro enzyme assay for specificity: Factor Xa; conditions: 30 min preincubation; substrate S-2765; read-out: FXa IC50 30 Min
T3 construct: purchased Enzyme Research Laboratories, Inc. (South Bend, Ind.)
Experimental: as §1, §2, §3
Factor Xa catalytic activity was determined using the chromogenic substrate S-2765 (N-benzyloxycarbonyl-D-arginine-L-glycine-L-arginine-p-nitro aniline), obtained from DiaPharma Group (Franklin, Ohio). All substrates were reconstituted in deionized water prior to use. […] Purified human Factor X was obtained from Enzyme Research Laboratories, Inc. (South Bend, Ind.) and Factor Xa (FXa) was activated and prepared from it as described [Bock, P. E., Craig, P. A., Olson, S. T., and Singh, P. Arch. Biochem. Biophys. 273:375–388 (1989)]. The enzyme was diluted into HBSA prior to assay in which the final concentration was 0.25 nM.

[1] = molecular target: T4, recombinant serine protease domain of matriptase or MTSP1 (rMAP) (Homo sapiens, UniProt Q9Y5Y6); test: Amidolytic assay for inhibition of serine protease activity of matriptase or MTSP1 (rMAP); conditions: 30 min preincubation of compound and rMAP; substrate S-2765
T4 construct: host or cells: Pichia pastoris SMD1168 / pPIC9K-MTSP1
T4 sequence (Q9Y5Y6 615-855): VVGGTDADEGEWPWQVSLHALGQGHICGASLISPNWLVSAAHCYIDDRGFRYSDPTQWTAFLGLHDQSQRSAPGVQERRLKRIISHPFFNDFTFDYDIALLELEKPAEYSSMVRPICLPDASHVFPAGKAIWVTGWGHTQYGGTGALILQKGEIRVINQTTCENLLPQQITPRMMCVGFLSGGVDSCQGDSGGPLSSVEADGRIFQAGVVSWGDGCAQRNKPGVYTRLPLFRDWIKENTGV
Experimental: The ability of the compounds of the present invention to act as inhibitors of rMAP catalytic activity was assessed by determining the inhibitor-induced inhibition of amidolytic activity by the MAP, as measured by IC50 values.
The assay buffer was HBSA (10 mM Hepes, 150 mM sodium chloride, pH 7.4, 0.1% bovine serum albumin). All reagents were from Sigma Chemical Co. (St. Louis, Mo.), unless otherwise indicated.
Two IC50 assays (a) one at either 30-minutes or 60-minutes (a 30-minute or a 60-minute preincubation of test compound and enzyme) and (b) one at 0-minutes (no preincubation of test compound and enzyme) were conducted. […] Following either a 30-minute or a 60-minute incubation at ambient temperature, the assay was initiated by the addition of 50 microliters of the substrate S-2765 (N-α-Benzyloxycarbonyl-D-arginyl-L-glycyl-L-arginine-p-nitroaniline dihydrochloride; DiaPharma Group, Inc.; Franklin, Ohio) to each well, yielding a final assay volume of 200 microliters and a final substrate concentration of 100 μM (about 4-times Km). Before addition to the assay mixture, S-2765 was reconstituted in deionized water and diluted in HBSA. For the IC50 assay at 0 minutes; the same reagents were combined: 50 microliters of HBSA, 50 microliters of the test compound, diluted (covering the identical concentration range) in HBSA (or HBSA alone for uninhibited velocity measurement), and 50 microliters of the substrate S-2765. The assay was initiated by the addition of 50 microliters of rMAP. The final concentrations of all components were identical in both IC50 assays (at 30- or 60- and 0-minute).
The initial velocity of chromogenic substrate hydrolysis was measured in both assays by the change of absorbance at 405 nm using a Thermo Max® Kinetic Microplate Reader (Molecular Devices) over a 5 minute period, in which less than 5% of the added substrate was utilized. The concentration of added inhibitor, which caused a 50% decrease in the initial rate of hydrolysis was defined as the respective IC50 value in each of the two assays (30- or 60-minutes and 0-minute).

[2] = molecular target: T5, bovine pancreatic trypsin (Bos taurus, UniProt P00760); test: In vitro enzyme assay for specificity: Trypsin; conditions: 30 min preincubation; substrate S-2222; read-out: Thypsin IC50 30 Min
T5 construct: Purified (3×-crystallized; TRL3) bovine pancreatic trypsin was obtained from Worthington Biochemical Corp; purchased Worthington Biochemical Corp. TRL3; host or cells: bovine pancreas
T5 sequence (P00760 24-246): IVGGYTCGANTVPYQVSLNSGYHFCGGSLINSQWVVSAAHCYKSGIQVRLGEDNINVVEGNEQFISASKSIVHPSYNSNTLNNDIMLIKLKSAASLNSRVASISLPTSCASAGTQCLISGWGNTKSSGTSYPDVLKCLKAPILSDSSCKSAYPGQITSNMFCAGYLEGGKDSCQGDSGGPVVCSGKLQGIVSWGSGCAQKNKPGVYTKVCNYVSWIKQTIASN
Experimental: as §1, §2, §3
Trypsin catalytic activity was determined using the chromogenic substrate, S-2222 (benzoyl-L-isoleucine-L-glutamic acid-[gamma-methyl ester]-L-arginine-p-nitroanilide), which was obtained from DiaPharma Group. […] Purified (3×-crystallized; TRL3) bovine pancreatic trypsin was obtained from Worthington Biochemical Corp. The enzyme was reconstituted in deionized water and diluted into HBSA prior to assay in which the final concentration was 0.5 nM.

T3 sequence (P00742 235-488 limits assumed): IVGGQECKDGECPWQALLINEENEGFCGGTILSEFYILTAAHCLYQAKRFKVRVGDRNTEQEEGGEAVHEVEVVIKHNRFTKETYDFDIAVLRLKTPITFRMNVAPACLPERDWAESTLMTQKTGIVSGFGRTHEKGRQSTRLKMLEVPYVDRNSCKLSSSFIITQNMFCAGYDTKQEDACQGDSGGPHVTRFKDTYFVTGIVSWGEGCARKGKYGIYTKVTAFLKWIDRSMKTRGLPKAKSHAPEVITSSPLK
T3 sequence (P00742 41-179 partner limits assumed): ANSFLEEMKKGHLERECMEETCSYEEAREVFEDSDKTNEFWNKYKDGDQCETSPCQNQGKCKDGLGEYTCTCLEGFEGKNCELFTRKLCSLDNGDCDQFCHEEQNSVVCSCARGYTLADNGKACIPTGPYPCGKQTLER
T2 sequence (P00747 581-810 limits assumed): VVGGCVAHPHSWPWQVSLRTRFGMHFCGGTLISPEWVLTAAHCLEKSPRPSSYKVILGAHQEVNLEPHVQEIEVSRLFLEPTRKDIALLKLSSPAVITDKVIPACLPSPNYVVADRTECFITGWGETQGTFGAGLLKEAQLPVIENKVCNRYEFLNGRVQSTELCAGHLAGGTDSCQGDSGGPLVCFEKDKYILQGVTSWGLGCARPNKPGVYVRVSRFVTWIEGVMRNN
T2 sequence (P00747 97-580 partner limits assumed): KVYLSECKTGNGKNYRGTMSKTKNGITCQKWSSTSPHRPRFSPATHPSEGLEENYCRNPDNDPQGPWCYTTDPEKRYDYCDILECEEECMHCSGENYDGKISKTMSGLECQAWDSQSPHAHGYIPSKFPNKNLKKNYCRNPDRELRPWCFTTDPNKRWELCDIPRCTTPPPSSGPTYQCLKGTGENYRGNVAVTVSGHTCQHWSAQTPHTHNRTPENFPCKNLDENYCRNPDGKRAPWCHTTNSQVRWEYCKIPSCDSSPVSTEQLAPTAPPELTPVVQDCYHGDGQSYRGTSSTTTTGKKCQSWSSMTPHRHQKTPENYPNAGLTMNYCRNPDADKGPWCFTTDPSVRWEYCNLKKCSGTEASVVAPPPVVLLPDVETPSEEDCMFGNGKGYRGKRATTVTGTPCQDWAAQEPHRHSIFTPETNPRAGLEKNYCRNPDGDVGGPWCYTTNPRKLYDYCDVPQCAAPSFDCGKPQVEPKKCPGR

| SMILES | IC50 (human α-thrombin) [µM] | IC50 (human plasmin) [µM] | IC50 (Factor Xa) [µM] | IC50 [1] [µM] | IC50 [2] [µM] |
| --- | --- | --- | --- | --- | --- |
| CC(=O)N[C@](CCC(=O)O)(Cc1cccc(C(=N)N)c1)C(=O)NCC(=O)N[C@H](C=O)CCCNC(=N)N [E] | > 2.5 | > 2.5 | > 2.5 | < 0.1 | > 2.5 |
| COC(=O)N[C@](CCC(=O)O)(Cc1cccc(C(=N)N)c1)C(=O)NCC(=O)N[C@H](C=O)CCCNC(=N)N [D] | > 2.5 | > 2.5 | > 2.5 | < 0.1 | > 2.5 |
| CCNC(=O)N[C@](CCC(=O)O)(Cc1cccc(C(=N)N)c1)C(=O)NCC(=O)N[C@H](C=O)CCCNC(=N)N [H] | > 2.5 | > 2.5 | > 2.5 | < 0.1 | > 2.5 |
| COC(=O)CCC(N)(Cc1cccc(C(=N)N)c1)C(=O)NCC(=O)NC(C=O)CCCNC(=N)N (stereo not drawn) [C] | > 2.5 | 0.5 to 2.5 | > 2.5 | < 0.1 | 0.5 to 2.5 |
| N=C(N)NCCC[C@@H](C=O)NC(=O)CNC(=O)[C@@](CCC(=O)O)(Cc1cccc(C(=N)N)c1)NC(=O)Oc1ccccc1 [M] | > 2.5 | > 2.5 | 0.5 to 2.5 | < 0.1 | 0.25 to 0.5 |
| CC(C)COC(=O)N[C@](CCC(=O)O)(Cc1cccc(C(=N)N)c1)C(=O)NCC(=O)N[C@H](C=O)CCCNC(=N)N [L] | > 2.5 | > 2.5 | > 2.5 | < 0.1 | > 2.5 |
| N=C(N)NCCC[C@@H](C=O)NC(=O)CNC(=O)[C@@](N)(CCC(=O)O)Cc1cccc(C(=N)N)c1 [A] | > 2.5 | 0.5 to 2.5 | > 2.5 | < 0.1 | 0.25 to 0.5 |
| N=C(N)NCCCC(C=O)NC(=O)CNC(=O)C(CCC(=O)O)(Cc1cccc(C(=N)N)c1)NS(=O)(=O)Cc1ccccc1 (stereo not drawn) [B] | 0.5 to 2.5 | > 2.5 | > 2.5 | < 0.1 | > 2.5 |
| CCOC(=O)N[C@](CCC(=O)O)(Cc1cccc(C(=N)N)c1)C(=O)NCC(=O)N[C@H](C=O)CCCNC(=N)N [K] | > 2.5 | > 2.5 | > 2.5 | < 0.1 | > 2.5 |
| COC(=O)N[C@](CCC(=O)O)(Cc1cccc(C(=N)N)c1)C(=O)N[C@@H](C)C(=O)N[C@H](C=O)CCCNC(=N)N [F] | > 2.5 | 0.5 to 2.5 | > 2.5 | < 0.1 | 0.5 to 2.5 |
| COC(=O)N[C@](CCC(=O)O)(Cc1cccc(C)c1)C(=O)N[C@@H](C)C(=O)N[C@H](C=O)CCCNC(=N)N [G] | > 2.5 | 0.5 to 2.5 | > 2.5 | < 0.1 | < 0.1 |
| COC(=O)N[C@](CCC(=O)O)(Cc1ccccc1)C(=O)NCC(=O)N[C@H](C=O)CCCNC(=N)N [I] | > 2.5 | > 2.5 | 0.5 to 2.5 | < 0.1 | 0.5 to 2.5 |
